ChEMBL document CHEMBL1137475, “Design, synthesis, and docking studies of new 1,3,4-thiadiazole-2-thione derivatives with carbonic anhydrase inhibitory activity” (Bioorg Med Chem, 2007)
pKi: −log10 of the molar value.

Columns and labels:
Carbonic anhydrase 9 = Carbonic anhydrase 9 (Homo sapiens, UniProt Q16790)
Carbonic anhydrase 2 = Carbonic anhydrase 2 (Homo sapiens, UniProt P00918)
Carbonic anhydrase 1 = Carbonic anhydrase 1 (Homo sapiens, UniProt P00915)
Sequence of Carbonic anhydrase 1 (P00915 whole entry): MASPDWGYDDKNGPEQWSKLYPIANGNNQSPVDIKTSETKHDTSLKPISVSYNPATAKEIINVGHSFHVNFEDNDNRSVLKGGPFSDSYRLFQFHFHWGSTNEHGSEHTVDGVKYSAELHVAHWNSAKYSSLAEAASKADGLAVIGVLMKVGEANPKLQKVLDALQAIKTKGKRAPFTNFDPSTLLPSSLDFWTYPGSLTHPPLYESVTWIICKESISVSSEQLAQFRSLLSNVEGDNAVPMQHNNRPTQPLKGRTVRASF

Compound | pKi (Carbonic anhydrase 9) | pKi (Carbonic anhydrase 2) | pKi (Carbonic anhydrase 1)
NNC(=O)Nc1n[nH]c(=S)s1 | 5.03 |  | 
O=C(N/N=C/c1ccccc1)Nc1n[nH]c(=S)s1 | 4.64 | 3.45 | 
C/C(=N\NC(=O)Nc1n[nH]c(=S)s1)c1ccc([N+](=O)[O-])cc1 | 5.12 |  | 
O=C(N/N=C/c1ccc([N+](=O)[O-])cc1)Nc1n[nH]c(=S)s1 | 5.00 |  | 
C/C(=N\NC(=O)Nc1n[nH]c(=S)s1)c1ccc(Br)cc1 | 5.16 |  | 
C/C(=N\NC(=O)Nc1n[nH]c(=S)s1)c1ccc(Cl)cc1 | 5.07 |  | 3.84
COc1cccc(/C=N/NC(=O)Nc2n[nH]c(=S)s2)c1 | 5.15 |  | 
COc1cc(/C=N/NC(=O)Nc2n[nH]c(=S)s2)ccc1O | 4.59 | 3.41 | 
COc1ccc(/C(C)=N/NC(=O)Nc2n[nH]c(=S)s2)cc1 | 4.70 | 3.46 | 
O=C(N/N=C/c1ccccc1[N+](=O)[O-])Nc1n[nH]c(=S)s1 | 4.62 | 3.36 | 3.65
O=C(NN=C1C(=O)Nc2ccc(Br)cc21)Nc1nnc(S)s1 | 5.14 |  | 
O=C(N/N=C/c1ccco1)Nc1n[nH]c(=S)s1 | 5.24 |  | 
O=C(NN=C1C(=O)Nc2ccc([N+](=O)[O-])cc21)Nc1nnc(S)s1 | 5.90 |  | 
O=C(N/N=C/c1ccc(Br)cc1)Nc1n[nH]c(=S)s1 | 4.66 | 3.44 | 
O=C(N/N=C/c1ccccc1Cl)Nc1n[nH]c(=S)s1 | 4.54 | 3.39 | 
C/C(=N\NC(=O)Nc1n[nH]c(=S)s1)c1ccccc1 | 5.13 |  | 
O=C(NN=C(c1ccccc1)c1ccccc1)Nc1n[nH]c(=S)s1 | 5.07 |  | 
O=C(N/N=C/c1cccc(Br)c1)Nc1n[nH]c(=S)s1 | 5.00 | 3.63 | 
C/C(=N\NC(=O)Nc1n[nH]c(=S)s1)c1ccc(C)cc1 | 3.83 |  | 
C/C(=N\NC(=O)Nc1n[nH]c(=S)s1)c1ccc(O)cc1 | 4.68 | 3.46 | 
O=C(N/N=C/c1ccc(F)cc1)Nc1n[nH]c(=S)s1 | 5.12 |  | 
COc1ccc(/C=N/NC(=O)Nc2n[nH]c(=S)s2)cc1 | 4.62 | 3.46 | 
CN(C)c1ccccc1/C=N/NC(=O)Nc1n[nH]c(=S)s1 | 5.47 |  | 3.90
O=C(N/N=C/c1cccnc1)Nc1n[nH]c(=S)s1 | 5.30 |  | 
O=C(N/N=C1\C(=O)Nc2ccccc21)Nc1n[nH]c(=S)s1 | 5.03 |  | 
O=C(N/N=C/c1ccc(Cl)cc1)Nc1n[nH]c(=S)s1 | 3.93 |  | 
